Measured values published in PubChem BioAssay (NCI).
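Dose response: 5 concentrations. Exposure: 48 h. Format: 96-well plates. Endpoint: linear interpolation; highest concentration if not reached. GI50 = concentration required for 50% inhibition of growth. TGI: concentration producing complete growth inhibition.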

Tests used:
Assay in all cases: growth of human tumour cells (NCI), 48 h
786-0 renal = system: 786-0 renal
A498 renal = system: A498 renal
A549 NSCLC = system: A549 NSCLC
ACHN renal = system: ACHN renal
BT-549 breast = system: BT-549 breast
CAKI-1 renal = system: CAKI-1 renal
CCRF-CEM leukemia = system: CCRF-CEM leukemia
COLO 205 colon = system: COLO 205 colon
DU-145 prostate = system: DU-145 prostate
EKVX NSCLC = system: EKVX NSCLC
HCC-2998 colon = system: HCC-2998 colon
HCT-116 colon = system: HCT-116 colon
HCT-15 colon = system: HCT-15 colon
HL-60(TB) leukemia = system: HL-60(TB) leukemia
HOP-62 NSCLC = system: HOP-62 NSCLC
HOP-92 NSCLC = system: HOP-92 NSCLC
HS 578T breast = system: HS 578T breast
HT29 colon = system: HT29 colon
IGROV1 ovarian = system: IGROV1 ovarian
K-562 leukemia = system: K-562 leukemia
KM12 colon = system: KM12 colon
LOX IMVI melanoma = system: LOX IMVI melanoma
M14 melanoma = system: M14 melanoma
MALME-3M melanoma = system: MALME-3M melanoma
MCF7 breast = system: MCF7 breast
MDA-MB-231 breast = system: MDA-MB-231 breast
MDA-MB-435 = system: MDA-MB-435
MOLT-4 leukemia = system: MOLT-4 leukemia
NCI-H226 lung = system: NCI-H226 lung
NCI-H23 lung = system: NCI-H23 lung
NCI-H460 lung = system: NCI-H460 lung
NCI-H522 lung = system: NCI-H522 lung
NCI/ADR-RES ovarian = system: NCI/ADR-RES ovarian
OVCAR-3 ovarian = system: OVCAR-3 ovarian
OVCAR-4 ovarian = system: OVCAR-4 ovarian
OVCAR-5 ovarian = system: OVCAR-5 ovarian
OVCAR-8 ovarian = system: OVCAR-8 ovarian
PC-3 prostate = system: PC-3 prostate
RPMI-8226 leukemia = system: RPMI-8226 leukemia
RXF 393 renal = system: RXF 393 renal
SF-268 CNS = system: SF-268 CNS
SF-295 CNS = system: SF-295 CNS
SF-539 CNS = system: SF-539 CNS
SK-MEL-2 melanoma = system: SK-MEL-2 melanoma
SK-MEL-28 melanoma = system: SK-MEL-28 melanoma
SK-MEL-5 melanoma = system: SK-MEL-5 melanoma
SK-OV-3 ovarian = system: SK-OV-3 ovarian
SN12C renal = system: SN12C renal
SNB-19 CNS = system: SNB-19 CNS
SNB-75 CNS = system: SNB-75 CNS
SR leukemia = system: SR leukemia
SW-620 colon = system: SW-620 colon
T-47D breast = system: T-47D breast
TK-10 renal = system: TK-10 renal
U251 CNS = system: U251 CNS
UACC-257 melanoma = system: UACC-257 melanoma
UACC-62 melanoma = system: UACC-62 melanoma
UO-31 renal = system: UO-31 renal

SMILES: COc1cccc(-n2nc(C)c3c(N/N=C(\C)c4ccncc4)ncnc32)c1
- GI50 (786-0 renal): > 25 µM
- TGI (786-0 renal): > 25 µM
- GI50 (A498 renal): 4.76 µM
- TGI (A498 renal): > 25 µM
- GI50 (A549 NSCLC): > 25 µM
- TGI (A549 NSCLC): > 25 µM
- GI50 (ACHN renal): > 25 µM
- TGI (ACHN renal): > 25 µM
- GI50 (BT-549 breast): > 21.9 µM
- TGI (BT-549 breast): > 25 µM
- GI50 (CAKI-1 renal): > 25 µM
- TGI (CAKI-1 renal): > 25 µM
- GI50 (CCRF-CEM leukemia): > 25 µM
- TGI (CCRF-CEM leukemia): > 25 µM
- GI50 (COLO 205 colon): > 25 µM
- TGI (COLO 205 colon): > 25 µM
- GI50 (DU-145 prostate): > 25 µM
- TGI (DU-145 prostate): > 25 µM
- GI50 (EKVX NSCLC): > 25 µM
- TGI (EKVX NSCLC): > 25 µM
- GI50 (HCC-2998 colon): > 25 µM
- TGI (HCC-2998 colon): > 25 µM
- GI50 (HCT-116 colon): > 24.2 µM
- TGI (HCT-116 colon): > 25 µM
- GI50 (HCT-15 colon): > 25 µM
- TGI (HCT-15 colon): > 25 µM
- GI50 (HL-60(TB) leukemia): > 25 µM
- TGI (HL-60(TB) leukemia): > 25 µM
- GI50 (HOP-62 NSCLC): > 25 µM
- TGI (HOP-62 NSCLC): > 25 µM
- GI50 (HOP-92 NSCLC): 1.86 µM
- TGI (HOP-92 NSCLC): 16.9 µM
- GI50 (HS 578T breast): > 25 µM
- TGI (HS 578T breast): > 25 µM
- GI50 (HT29 colon): > 25 µM
- TGI (HT29 colon): > 25 µM
- GI50 (IGROV1 ovarian): > 25 µM
- TGI (IGROV1 ovarian): > 25 µM
- GI50 (K-562 leukemia): > 25 µM
- TGI (K-562 leukemia): > 25 µM
- GI50 (KM12 colon): > 25 µM
- TGI (KM12 colon): > 25 µM
- GI50 (LOX IMVI melanoma): > 25 µM
- TGI (LOX IMVI melanoma): > 25 µM
- GI50 (M14 melanoma): > 25 µM
- TGI (M14 melanoma): > 25 µM
- GI50 (MALME-3M melanoma): 10.3 µM
- TGI (MALME-3M melanoma): > 25 µM
- GI50 (MCF7 breast): > 25 µM
- TGI (MCF7 breast): > 25 µM
- GI50 (MDA-MB-231 breast): 8.4 µM
- TGI (MDA-MB-231 breast): > 25 µM
- GI50 (MDA-MB-435): > 25 µM
- TGI (MDA-MB-435): > 25 µM
- GI50 (MOLT-4 leukemia): > 25 µM
- TGI (MOLT-4 leukemia): > 25 µM
- GI50 (NCI-H226 lung): > 8.39 µM
- TGI (NCI-H226 lung): > 25 µM
- GI50 (NCI-H23 lung): > 25 µM
- TGI (NCI-H23 lung): > 25 µM
- GI50 (NCI-H460 lung): > 25 µM
- TGI (NCI-H460 lung): > 25 µM
- GI50 (NCI-H522 lung): > 25 µM
- TGI (NCI-H522 lung): > 25 µM
- GI50 (NCI/ADR-RES ovarian): > 25 µM
- TGI (NCI/ADR-RES ovarian): > 25 µM
- GI50 (OVCAR-3 ovarian): > 25 µM
- TGI (OVCAR-3 ovarian): > 25 µM
- GI50 (OVCAR-4 ovarian): > 25 µM
- TGI (OVCAR-4 ovarian): > 25 µM
- GI50 (OVCAR-5 ovarian): > 25 µM
- TGI (OVCAR-5 ovarian): > 25 µM
- GI50 (OVCAR-8 ovarian): > 25 µM
- TGI (OVCAR-8 ovarian): > 25 µM
- GI50 (PC-3 prostate): > 25 µM
- TGI (PC-3 prostate): > 25 µM
- GI50 (RPMI-8226 leukemia): > 25 µM
- TGI (RPMI-8226 leukemia): > 25 µM
- GI50 (RXF 393 renal): 8.15 µM
- TGI (RXF 393 renal): > 25 µM
- GI50 (SF-268 CNS): > 25 µM
- TGI (SF-268 CNS): > 25 µM
- GI50 (SF-295 CNS): > 25 µM
- TGI (SF-295 CNS): > 25 µM
- GI50 (SF-539 CNS): 22.8 µM
- TGI (SF-539 CNS): > 25 µM
- GI50 (SK-MEL-2 melanoma): > 25 µM
- TGI (SK-MEL-2 melanoma): > 25 µM
- GI50 (SK-MEL-28 melanoma): > 25 µM
- TGI (SK-MEL-28 melanoma): > 25 µM
- GI50 (SK-MEL-5 melanoma): 3.02 µM
- TGI (SK-MEL-5 melanoma): > 25 µM
- GI50 (SK-OV-3 ovarian): 13.4 µM
- TGI (SK-OV-3 ovarian): > 25 µM
- GI50 (SN12C renal): > 25 µM
- TGI (SN12C renal): > 25 µM
- GI50 (SNB-19 CNS): > 25 µM
- TGI (SNB-19 CNS): > 25 µM
- GI50 (SNB-75 CNS): > 9.22 µM
- TGI (SNB-75 CNS): > 25 µM
- GI50 (SR leukemia): > 25 µM
- TGI (SR leukemia): > 25 µM
- GI50 (SW-620 colon): > 25 µM
- TGI (SW-620 colon): > 25 µM
- GI50 (T-47D breast): 6.6 µM
- TGI (T-47D breast): > 25 µM
- GI50 (TK-10 renal): 10.2 µM
- TGI (TK-10 renal): > 25 µM
- GI50 (U251 CNS): > 22.2 µM
- TGI (U251 CNS): > 25 µM
- GI50 (UACC-257 melanoma): > 25 µM
- TGI (UACC-257 melanoma): > 25 µM
- GI50 (UACC-62 melanoma): > 25 µM
- TGI (UACC-62 melanoma): > 25 µM
- GI50 (UO-31 renal): 13.8 µM
- TGI (UO-31 renal): > 25 µM
